Source: the supplement of paper PMC4862054

Experiments:
Conditions in all cases: incubation time: 72 h
HDQ-P1 [1] = assay: normalised response (% of control), CellTiter-Glo; higher = more viable cells (100 = DMSO, 0 = benzethonium chloride kill control)
Protocol: (§1)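 DSRT, 72 h incubation, CellTox Green / CellTiter-Glo readout. Signal is normalised to DMSO and benzethonium chloride controls. Value is the normalised response at the highest dose.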

MDA-MB-468 [2] = assay: as above
Protocol: as §1

MCF-10A [3] = assay: as above
Protocol: as §1

HCC1143 [4] = assay: as above
Protocol: as §1

HCC1937 [5] = assay: as above
Protocol: as §1

MDA-MB-453 [6] = assay: as above
Protocol: as §1

BT-549 [7] = assay: as above
Protocol: as §1

BT-474 [8] = assay: as above
Protocol: as §1

MDA-MB-231 [9] = assay: as above
Protocol: as §1

CAL-85-1 [10] = assay: as above
Protocol: as §1

MFM-223 [11] = assay: as above
Protocol: as §1

SK-BR-3 = assay: as above
Protocol: as §1

CAL-120 [12] = assay: as above
Protocol: as §1

CAL-51 [13] = assay: as above
Protocol: as §1

DU-4475 [14] = assay: as above
Protocol: as §1

HCC1599 [15] = assay: as above
Protocol: as §1

MDA-MB-436 [16] = assay: as above
Protocol: as §1

Hs578T [17] = assay: as above
Protocol: as §1

CAL-148 [18] = assay: as above
Protocol: as §1

HDQ-P1 [19] = assay: normalised response (% of control), CellTox Green; higher = less cell death (100 = DMSO, 0 = benzethonium chloride kill control)
Method in brief: (§2)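 Plates were normalised with 0.1 % DMSO as 100 and a positive kill control as 0. Breast cancer cell lines in 20 µl suspension had been seeded into 384-well plates with compound at 5 concentrations in 10-fold steps over a compound-specific 10,000-fold range, incubated 72 h, and read for CellTox Green fluorescence (485/520 nm) followed by CellTiter-Glo luminescence. Each value is the normalised signal at a single concentration.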

MCF-10A [20] = assay: as above
Method in brief: as §2

HCC1143 [21] = assay: as above
Method in brief: as §2

HCC1937 [22] = assay: as above
Method in brief: as §2

MDA-MB-453 [23] = assay: as above
Method in brief: as §2

BT-549 [24] = assay: as above
Method in brief: as §2

BT-474 [25] = assay: as above
Method in brief: as §2

MDA-MB-231 [26] = assay: as above
Method in brief: as §2

CAL-85-1 [27] = assay: as above
Method in brief: as §2

MFM-223 [28] = assay: as above
Method in brief: as §2

CAL-120 [29] = assay: as above
Method in brief: as §2

CAL-51 [30] = assay: as above
Method in brief: as §2

DU-4475 [31] = assay: as above
Method in brief: as §2

HCC1599 [32] = assay: as above
Method in brief: as §2

MDA-MB-436 [33] = assay: as above
Method in brief: as §2

Hs578T [34] = assay: as above
Method in brief: as §2

CAL-148 [35] = assay: as above
Method in brief: as §2

MDA-MB-468 [36] = assay: as above
Method in brief: as §2

SMILES	normalised response (HDQ-P1 [1])	normalised response (MDA-MB-468 [2])	normalised response (MCF-10A [3])	normalised response (HCC1143 [4])	normalised response (HCC1937 [5])	normalised response (MDA-MB-453 [6])	normalised response (BT-549 [7])	normalised response (BT-474 [8])	normalised response (MDA-MB-231 [9])	normalised response (CAL-85-1 [10])	normalised response (MFM-223 [11])	normalised response (SK-BR-3)	normalised response (CAL-120 [12])	normalised response (CAL-51 [13])	normalised response (DU-4475 [14])	normalised response (HCC1599 [15])	normalised response (MDA-MB-436 [16])	normalised response (Hs578T [17])	normalised response (CAL-148 [18])	normalised response (HDQ-P1 [19])	normalised response (MCF-10A [20])	normalised response (HCC1143 [21])	normalised response (HCC1937 [22])	normalised response (MDA-MB-453 [23])	normalised response (BT-549 [24])	normalised response (BT-474 [25])	normalised response (MDA-MB-231 [26])	normalised response (CAL-85-1 [27])	normalised response (MFM-223 [28])	normalised response (CAL-120 [29])	normalised response (CAL-51 [30])	normalised response (DU-4475 [31])	normalised response (HCC1599 [32])	normalised response (MDA-MB-436 [33])	normalised response (Hs578T [34])	normalised response (CAL-148 [35])	normalised response (MDA-MB-468 [36])
C=CCN(/C=C1/C(=O)O[C@H](COC)[C@@]2(C)C1=C(O)C(=O)C1=C2[C@H](OC(C)=O)C[C@]2(C)C(=O)CC[C@@H]12)CC=C [Sonolisib] (10000 nM)	72.1%	86%	88.4%	91.8%	90.4%	84.8%	82.2%	87.1%	87.3%	103%	106%	93.9%	102%	82.1%	96.5%	102%	101%	95.7%	124%	108%	108%	117%	81.7%	101%	104%	99.8%	106%	61.7%	103%	97.4%	90.6%	107%	113%	98.2%	111%	–	–
CN(C)C(=N)NC(=N)N [Metformin] (100000 nM)	95.4%	86.1%	75.6%	93%	86.8%	89.9%	99.3%	95.5%	91.2%	104%	90.3%	80%	108%	82.5%	79.1%	108%	102%	92.6%	104%	99.2%	89.2%	–	95.3%	90.5%	76.3%	91.1%	69.3%	125%	96.3%	94.6%	86.8%	90.3%	76%	93.3%	52.6%	98.1%	–
CC(C)(C)c1nc(-c2cccc(NS(=O)(=O)c3c(F)cccc3F)c2F)c(-c2ccnc(N)n2)s1 [Dabrafenib] (2500 nM)	94%	89.2%	96%	95%	96.8%	95.4%	92.7%	100%	101%	108%	93.1%	80.8%	75.8%	72.6%	0.71%	89.4%	92.3%	88%	108%	–	102%	120%	–	96.6%	94.2%	103%	97.8%	83.9%	104%	78.8%	106%	70.1%	103%	107%	–	–	87%
CCn1c(C(=O)N(C2CC2)C2CC2)cc2c3c(ncn3C)c(Nc3cc(C)n(C)n3)nc21 (10000 nM)	101%	94.4%	86.6%	93.2%	92.8%	97%	102%	83.3%	82.2%	99.5%	83.1%	93.2%	102%	106%	97.9%	123%	93.6%	96%	103%	105%	109%	–	–	97.7%	–	103%	113%	102%	94.3%	103%	99.5%	98.5%	94%	88.1%	89.6%	93%	80.7%
O=C(O)CNC(=O)c1c(O)c2ccccc2n(Cc2ccccc2)c1=O [IOX-2] (50000 nM)	91.1%	92.2%	102%	92.6%	98.2%	103%	86.4%	85.9%	85.1%	93.9%	98.2%	94%	95.3%	71.1%	98.3%	97.3%	62.9%	103%	97.8%	–	107%	104%	91.5%	–	73.6%	102%	100%	105%	103%	101%	84.3%	97.8%	102%	67%	113%	101%	133%
